Values of other authors in patent US7514592B2, “Inducible heart attack animal model” (Massachusetts Institute of Technology, priority 2004, dated 2009).

System: SR-BI knockout females
Settings: homozygous SR-BI knockout dams (infertile); administered during the breeding protocol

In the case of `CC(C)(Sc1cc(C(C)(C)C)c(O)c(C(C)(C)C)c1)Sc1cc(C(C)(C)C)c(O)c(C(C)(C)C)c1` [probucol], the “fertility in SR-BI knockout females” value is given as “restore fertility”.
